Measurements reported in patent publication US9999619B2, “Piperidin-4-yl azetidine derivatives as JAK1 inhibitors” (Incyte Corporation, priority 2010, dated 2018).

How the values were obtained:
Type in all cases: biochemical
[1] = target: Jak2 (a.a. 828-1132) (Homo sapiens (Human), UniProt O60674); test: In vitro JAK kinase assay (HTRF, phosphorylation of a biotinylated peptide), JAK2; details: measured at 1 mM ATP
Method: (§1) Compounds herein were tested for inhibitory activity of JAK targets according to the following in vitro assay described in Park et al., Analytical Biochemistry 1999, 269, 94-104. The catalytic domains of human JAK1 (a.a. 837-1142), Jak2 (a.a. 828-1132) and Jak3 (a.a. 781-1124) with an N-terminal His tag were expressed using baculovirus in insect cells and purified. The catalytic activity of JAK1, JAK2 or JAK3 was assayed by measuring the phosphorylation of a biotinylated peptide. The phosphorylated peptide was detected by homogenous time resolved fluorescence (HTRF). […] Reactions were carried out at room temperature for 1 hr and then stopped with 20 μL 45 mM EDTA, 300 nM SA-APC, 6 nM Eu-Py20 in assay buffer (Perkin Elmer, Boston, Mass.). Binding to the Europium labeled antibody took place for 40 minutes and HTRF signal was measured on a Fusion plate reader (Perkin Elmer, Boston, Mass.).

[2] = target: human JAK1 (a.a. 837-1142); test: In vitro JAK kinase assay (HTRF, phosphorylation of a biotinylated peptide), JAK1; details: ratio of JAK2 IC50 to JAK1 IC50, measured at 1 mM ATP
Method: as §1

[3] = target: human JAK1 (a.a. 837-1142) (Homo sapiens, UniProt P23458); test: as above; details: measured at 1 mM ATP
Method: as §1

Sequence of Jak2 (a.a. 828-1132) (O60674 828-1132): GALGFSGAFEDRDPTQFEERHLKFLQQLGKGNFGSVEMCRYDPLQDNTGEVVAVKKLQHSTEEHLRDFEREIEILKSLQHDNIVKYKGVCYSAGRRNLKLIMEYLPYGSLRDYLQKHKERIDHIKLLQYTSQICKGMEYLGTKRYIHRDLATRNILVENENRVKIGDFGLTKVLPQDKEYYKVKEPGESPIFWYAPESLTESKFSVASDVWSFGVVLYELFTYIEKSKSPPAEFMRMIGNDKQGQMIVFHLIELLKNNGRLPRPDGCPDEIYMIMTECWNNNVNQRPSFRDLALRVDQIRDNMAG

SMILES | IC50 [1] [nM] | IC50 Ratio JAK2/JAK1 [2] | IC50 [3] [nM]
N#CCC1(n2cc(-c3ncnc4[nH]ccc34)cn2)CN(C2CCN(C(=O)c3cc(Cl)sc3Cl)CC2)C1 [Example 30, {1-{1-[(2,5-dichloro-3-thienyl)carbonyl]piperidin-4-yl}-3-[4-(7H-pyrrolo[2,3-d]pyrimidin-4-yl)-1H-pyrazol-1-yl]azetidin-3-yl}acetonitrile] | ≤ 10 | 2.8 | ≤ 5
N#CCC1(n2cc(-c3ncnc4[nH]ccc34)cn2)CN(C2CCN(C(=O)c3ccc(F)c(Cl)c3)CC2)C1 [Example 34, {1-[1-(3-chloro-4-fluorobenzoyl)piperidin-4-yl]-3-[4-(7H-pyrrolo[2,3-d]pyrimidin-4-yl)-1H-pyrazol-1-yl]azetidin-3-yl}acetonitrile] | 10 to 50 | 6.0 | 5 to 20
N#CCC1(n2cc(-c3ncnc4[nH]ccc34)cn2)CN(C2CCN(C(=O)Nc3ccc(Cl)cc3F)CC2)C1 [Example 178, N-(4-chloro-2-fluorophenyl)-4-{3-(cyanomethyl)-3-[4-(7H-pyrrolo[2,3-d]pyrimidin-4-yl)-1H-pyrazol-1-yl]azetidin-1-yl}piperidine-1-carboxamide] | ≤ 10 | 6.5 | ≤ 5
N#CCC1(n2cc(-c3ncnc4[nH]ccc34)cn2)CN(C2CCN(C(=O)c3ccc(F)c(F)c3F)CC2)C1 [Example 46, {3-[4-(7H-pyrrolo[2,3-d]pyrimidin-4-yl)-1H-pyrazol-1-yl]-1-[1-(2,3,4-trifluorobenzoyl)piperidin-4-yl]azetidin-3-yl}acetonitrile] | 10 to 50 | 6.3 | ≤ 5
N#CCC1(n2ccc(-c3ncnc4[nH]ccc34)c2)CN(C2CCN(C(=O)Nc3ccccc3C#N)CC2)C1 [Example 287, 4-{3-(cyanomethyl)-3-[3-(7H-pyrrolo[2,3-d]pyrimidin-4-yl)-1H-pyrrol-1-yl]azetidin-1-yl}-N-(2-cyanophenyl)piperidine-1-carboxamide] | 50 to 100 | 6.7 | 5 to 20
N#CCC1(n2cc(-c3ccnc4[nH]ccc34)cn2)CN(C2CCN(C(=O)c3cc(C(F)(F)F)ncc3Cl)CC2)C1 [Example 298, {1-{1-[5-chloro-2-(trifluoromethyl)isonicotinoyl]piperidin-4-yl}-3-[4-(1H-pyrrolo[2,3-b]pyridin-4-yl)-1H-pyrazol-1-yl]azetidin-3-yl}acetonitrile] | 50 to 100 | 2.8 | 20 to 30
N#CCC1(n2cc(-c3ncnc4[nH]ccc34)cn2)CN(C2CCN(Cc3cccc(C(F)(F)F)c3F)CC2)C1 [Example 212, {1-{-[2-fluoro-3-(trifluoromethyl)benzyl]piperidin-4-yl}-3-[4-(7H-pyrrolo[2,3-d]pyrimidin-4-yl)-1H-pyrazol-1-yl]azetidin-3-yl}acetonitrile] | 50 to 100 | 7.8 | 5 to 20
N#CCC1(n2cc(-c3c(F)cnc4[nH]ccc34)cn2)CN(C2CCN(C(=O)C3CCC(F)(F)CC3)CC2)C1 [Example 327, {1-{1-[(4,4-difluorocyclohexyl)carbonyl]piperidin-4-yl}-3-[4-(5-fluoro-1H-pyrrolo[2,3-b]pyridine-4-yl)-1H-pyrazol-1-yl]azetidin-3-yl}acetonitrile] | 50 to 100 | 4.1 | 5 to 20
N#CCC1(n2cc(-c3ncnc4[nH]ccc34)cn2)CN(C2CCN(C(=O)c3cnc4ccccc4c3)CC2)C1 [Example 88, {3-[4-(7H-pyrrolo[2,3-d]pyrimidin-4-yl)-1H-pyrazol-1-yl]-1-[1-(quinolin-3-ylcarbonyl)piperidin-4-yl]azetidin-3-yl}acetonitrile] | ≤ 10 | 0.9 | 5 to 20
N#CCC1(n2cc(-c3ncnc4[nH]ccc34)cn2)CN(C2CCN(C(=O)c3ccc(-c4cc(F)cc(C#N)c4)c(F)c3)CC2)C1 [Example 128, 4′-[(4-{3-(cyanomethyl)-3-[4-(7H-pyrrolo[2,3-d]pyrimidin-4-yl)-1H-pyrazol-1-yl]azetidin-1-yl}piperidin-1-yl)carbonyl]-2′,5-difluorobiphenyl-3-carbonitrile] | 10 to 50 | 3.5 | ≤ 5
COc1cccc(C(=O)N2CCC(N3CC(CC#N)(n4cc(-c5ncnc6[nH]ccc56)cn4)C3)CC2)c1 [Example 31, {1-[1-(3-methoxybenzoyl)piperidin-4-yl]-3-[4-(7H-pyrrolo[2,3-d]pyrimidin-4-yl)-1H-pyrazol-1-yl]azetidin-3-yl}acetonitrile] | ≤ 10 | 1.9 | ≤ 5
N#CCC1(n2cc(-c3ccnc4[nH]ccc34)cn2)CN(C2CCN(C(=O)C3CCC(F)(F)CC3)CC2)C1 [Example 302, {1-{1-[(4,4-fluorocyclohexyl)carbonyl]piperidin-4-yl}-3-[4-(1H-pyrrolo[2,3-b]pyridin-4-yl)-1H-pyrazol-1-yl]azetidin-3-yl}acetonitrile] | > 100 | 6.5 | 20 to 30
N#CCC1(n2ccc(-c3ncnc4[nH]ccc34)c2)CN(C2CCN(C(=O)c3cnc(C(F)(F)F)cn3)CC2)C1 [Example 347, [3-[3-(7H-Pyrrolo[2,3-d]pyrimidin-4-yl)-1H-pyrrol-1-yl]-1-(1-{[5-(trifluoromethyl)pyrazin-2-yl]carbonyl}piperidin-4-yl)azetidin-3-yl]acetonitrile] | 10 to 50 | 2.7 | 5 to 20
N#CCC1(n2ccc(-c3ncnc4[nH]ccc34)c2)CN(C2CCN(C(=O)c3cccc(C#N)c3)CC2)C1 [Example 262, 3-[(4-{3-(cyanomethyl)-3-[3-(7H-pyrrolo[2,3-d]pyrimidin-4-yl)-1H-pyrrol-1-yl]azetidin-1-yl}piperidin-1-yl)carbonyl]benzonitrile] | 50 to 100 | 7.4 | 5 to 20
N#CCC1(n2cc(-c3ncnc4[nH]ccc34)cn2)CN(C2CCN(C(=O)C3CCC(c4ccc(Cl)cc4)CC3)CC2)C1 (stereo not drawn) [Example 105, {1-(1-{[4-(4-chlorophenyl)cyclohexyl]carbonyl}piperidin-4-yl)-3-[4-(7H-pyrrolo[2,3-d]pyrimidin-4-yl)-1H-pyrazol-1-yl]azetidin-3-yl}acetonitrile] | > 100 | 7.2 | 5 to 20
N#CCC1(n2cc(-c3ccnc4[nH]ccc34)cn2)CN(C2CCN(C(=O)c3cncc(C(F)(F)F)n3)CC2)C1 [Example 300, [3-[4-(1H-pyrrolo[2,3-b]pyridin-4-yl)-1H-pyrazol-1-yl]-1-(1-{[6-(trifluoromethyl)pyrazin-2-yl]carbonyl}piperidin-4-yl)azetidin-3-yl]acetonitrile] | > 100 | 11.7 | 5 to 20
N#CCC1(n2cc(-c3ncnc4[nH]ccc34)cn2)CN(C2CCN(C(=O)c3cccc(Br)c3)CC2)C1 [Example 20, {1-[1-(3-bromobenzoyl)piperidin-4-yl]-3-[4-(7H-pyrrolo[2,3-d]pyrimidin-4-yl)-1H-pyrazol-1-yl]azetidin-3-yl}acetonitrile] | ≤ 10 | 4.2 | ≤ 5
N#CCC1(n2cc(-c3ncnc4[nH]ccc34)cn2)CN(C2CCN(C(=O)c3ccc(-c4nc5ccccc5o4)cc3)CC2)C1 [Example 136, {1-{1-[4-(1,3-benzoxazol-2-yl)benzoyl]piperidin-4-yl}-3-[4-(7H-pyrrolo[2,3-d]pyrimidin-4-yl)-1H-pyrazol-1-yl]azetidin-3-yl}acetonitrile] | > 100 | 5.6 | 5 to 20
N#CCC1(n2ccc(-c3ncnc4[nH]ccc34)c2)CN(C2CCN(C(=O)c3cc(F)ccc3C(F)(F)F)CC2)C1 [Example 266, {1-{1-[5-fluoro-2-(trifluoromethyl)benzoyl]piperidin-4-yl}-3-[3-(7H-pyrrolo[2,3-d]pyrimidin-4-yl)-1H-pyrrol-1-yl]azetidin-3-yl}acetonitrile] | 50 to 100 | 6.6 | 5 to 20
N#CCC1(n2cc(-c3ncnc4[nH]ccc34)cn2)CN(C2CCN(C(=O)Nc3ccc(OC(F)(F)F)cc3)CC2)C1 [Example 182, 4-{3-(cyanomethyl)-3-[4-(7H-pyrrolo[2,3-d]pyrimidin-4-yl)-1H-pyrazol-1-yl]azetidin-1-yl}-N-[4-(trifluoromethoxy)phenyl]piperidine-1-carboxamide] | 10 to 50 | 3.7 | 5 to 20
N#CCC1(n2cc(-c3ccnc4[nH]ccc34)cn2)CN(C2CCN(C(=O)Nc3cnccc3C(F)(F)F)CC2)C1 [Example 308, 4-{3-(cyanomethyl)-3-[4-(1H-pyrrolo[2,3-b]pyridin-4-yl)-1H-pyrazol-1-yl]azetidin-1-yl}-N-[4-(trifluoromethyl)pyridin-3-yl]piperidine-1-carboxamide] | 50 to 100 | 10.4 | ≤ 5
N#CCC1(n2cc(-c3ncnc4[nH]ccc34)cn2)CN(C2CCN(C(=O)c3cc(CO)nc(C(F)(F)F)n3)CC2)C1 [Example 381, {1-(1-{[6-(hydroxymethyl)-2-(trifluoromethyl)pyrimidin-4-yl]carbonyl}piperidin-4-yl)-3-[4-(7H-pyrrolo[2,3-d]pyrimidin-4-yl)-1H-pyrazol-1-yl]azetidin-3-yl}acetonitrile] | 10 to 50 | 20 | ≤ 5
